Values joined by “and” are separate entries in the source; they are usually repeats but may differ in a detail not shown here. Equal entries are not always repeated. ± gives the uncertainty stated by the source.
Cc1ccnc(C)c1
101 kPa
Conditions | viscosity
303 K | 0.7893 ± 0.0064 mPa·s and 0.7892 ± 0.0064 mPa·s
313 K | 0.6863 ± 0.0056 mPa·s and 0.686 ± 0.0056 mPa·s
323 K | 0.6133 ± 0.0051 mPa·s and 0.6129 ± 0.0051 mPa·s

CC=Cc1ccc(O)c(OC)c1
Conditions | viscosity [mPa·s]
298.15 K, 101 kPa | 26.7 ± 0.32

CCCCCCCC
Conditions | viscosity
293.15 K, 100 kPa | 0.547 ± 0.012 mPa·s and 0.512 ± 0.008 mPa·s
293.15 K, 101 kPa | 0.556 ± 0.007 mPa·s and 0.539 ± 0.014 mPa·s
298.15 K, 100 kPa | 0.517 ± 0.011 mPa·s and 0.48 ± 0.007 mPa·s
298.15 K, 101.32 kPa | 0.507 ± 0.007 mPa·s
303.15 K, 100 kPa | 0.452 ± 0.007 mPa·s
303.15 K, 101 kPa | 0.482 ± 0.009 mPa·s
303.15 K, 101.33 kPa | 0.4865 ± 0.098 mPa·s and 0.479 ± 0.004 mPa·s (2×) and 0.479 ± 0.014 mPa·s
308.15 K, 100 kPa | 0.468 ± 0.01 mPa·s and 0.425 ± 0.007 mPa·s
308.16 K, 101.3 kPa | 0.4568 ± 0.0049 mPa·s
313.15 K, 100 kPa | 0.447 ± 0.01 mPa·s and 0.4 ± 0.006 mPa·s and 0.429 ± 0.026 mPa·s
318.15 K, 101.33 kPa | 0.403 ± 0.012 mPa·s
318.16 K, 101 kPa | 0.4138 ± 0.0037 mPa·s
323.15 K, 100 kPa | 0.385 ± 0.016 mPa·s
323.15 K, 101 kPa | 0.4049 ± 0.0079 mPa·s

CCCCCCCCCCCCCC
Conditions | viscosity
293.15 K, 101.33 kPa | 2.282 ± 0.23 mPa·s and 2.292 ± 0.031 mPa·s and 2.292 ± 0.027 mPa·s
298 K, 101.33 kPa | 2.074 ± 0.026 mPa·s
298.15 K, 100 kPa | 2.15 ± 0.069 mPa·s
298.15 K, 101.33 kPa | 2.088 ± 0.016 mPa·s and 2.091 ± 0.016 mPa·s and 2.025 ± 0.047 mPa·s
298.15 K, 103 kPa | 2.048 ± 0.043 mPa·s
303.15 K, 101 kPa | 1.895 ± 0.11 mPa·s and 1.895 ± 0.17 mPa·s
303.15 K, 101.33 kPa | 1.864 ± 0.19 mPa·s
308.15 K, 101 kPa | 1.715 ± 0.1 mPa·s and 1.715 ± 0.15 mPa·s
308.15 K, 103 kPa | 1.685 ± 0.042 mPa·s
313.15 K, 100 kPa | 1.612 ± 0.053 mPa·s
313.15 K, 101.33 kPa | 1.548 ± 0.16 mPa·s
318.15 K, 101.33 kPa | 1.356 ± 0.032 mPa·s
318.15 K, 103 kPa | 1.413 ± 0.041 mPa·s
323.15 K, 101.33 kPa | 1.314 ± 0.13 mPa·s

COCC(C)O (stereo unspecified)
viscosity
Conditions | 298.15 K | 303.15 K | 308.15 K | 313.15 K | 318.15 K
101 kPa | 1.55 ± 0.15 mPa·s | 1.3 ± 0.13 mPa·s | 1.22 ± 0.12 mPa·s | 1.11 ± 0.11 mPa·s | 1.04 ± 0.1 mPa·s
101.33 kPa | 1.671 ± 0.015 mPa·s and 1.723 ± 0.041 mPa·s and 1.694 ± 0.026 mPa·s | – | 1.374 ± 0.033 mPa·s and 1.329 ± 0.021 mPa·s | – | 1.09 ± 0.027 mPa·s and 1.078 ± 0.017 mPa·s

C=COCCCC
Conditions | viscosity [mPa·s]
308.15 K, 101 kPa | 0.374 ± 0.017

O=[N+]([O-])c1ccccc1
viscosity
Conditions | 293.15 K | 298.15 K | 303.15 K | 308.15 K | 313.15 K | 318.15 K | 323.15 K
100 kPa | 2.087 ± 0.043 mPa·s | 1.909 ± 0.04 mPa·s | 1.755 ± 0.038 mPa·s | – | 1.501 ± 0.035 mPa·s | 1.397 ± 0.034 mPa·s | 1.303 ± 0.032 mPa·s
101 kPa | 1.931 ± 0.019 mPa·s | – | – | 1.457 ± 0.011 mPa·s and 1.242 ± 0.0097 mPa·s and 1.601 ± 0.019 mPa·s | 1.402 ± 0.036 mPa·s | – | 1.192 ± 0.032 mPa·s
101.3 kPa | – | 1.773 ± 0.042 mPa·s | – | – | 1.373 ± 0.033 mPa·s | – | –
101.33 kPa | 2.024 ± 0.047 mPa·s and 2.079 ± 0.11 mPa·s and 2.079 ± 0.21 mPa·s | – | 1.665 ± 0.078 mPa·s | – | – | – | –

CCCCCCCCCCCCCC[P+](CCCCCC)(CCCCCC)CCCCCC.N#C[N-]C#N
viscosity [mPa·s]
Conditions | 293.15 K | 298.15 K | 303.15 K | 308.15 K | 313.15 K | 318.15 K | 323.15 K
100 kPa | 603 ± 35 | 442 ± 23 | 331 ± 16 | 253 ± 11 | 196 ± 8 | 155 ± 5 | 124 ± 4
101 kPa | – | 440 ± 23 | 328 ± 16 | – | 196 ± 8 | – | 123 ± 5

CCn1cc[n+](CCOC)c1.O=S(=O)([N-]S(=O)(=O)C(F)(F)F)C(F)(F)F
100 kPa
Conditions | viscosity [mPa·s]
293.15 K | 43.63 ± 0.49
298.15 K | 35.49 ± 0.4
303.15 K | 29.33 ± 0.33
308.15 K | 24.58 ± 0.28
313.15 K | 20.86 ± 0.23
318.15 K | 18.03 ± 0.2

ClC(Cl)=C(Cl)Cl
Conditions | viscosity
293.15 K, 101.33 kPa | 0.8 ± 0.015 mPa·s
298 K, 101 kPa | 1.02 ± 0.12 mPa·s
298.15 K, 101 kPa | 0.838 ± 0.022 mPa·s and 0.8486 ± 0.0072 mPa·s and 0.8426 ± 0.0072 mPa·s
298.15 K, 101.33 kPa | 0.846 ± 0.008 mPa·s
303 K, 101 kPa | 0.97 ± 0.12 mPa·s
303.15 K, 101 kPa | 0.7976 ± 0.0065 mPa·s and 0.798 ± 0.007 mPa·s and 0.814 ± 0.007 mPa·s
303.15 K, 101.3 kPa | 0.799 ± 0.013 mPa·s
303.15 K, 101.32 kPa | 0.7976 ± 0.0094 mPa·s
308 K, 101 kPa | 0.92 ± 0.11 mPa·s
313 K, 101 kPa | 0.88 ± 0.11 mPa·s
313.15 K, 101.33 kPa | 0.731 ± 0.02 mPa·s and 0.68 ± 0.013 mPa·s

CCCCCCC
Conditions | viscosity
293.15 K, 100 kPa | 0.379 ± 0.006 mPa·s
293.15 K, 101 kPa | 0.4002 ± 0.015 mPa·s and 0.408 ± 0.011 mPa·s
293.17 K, 101 kPa | 0.409 ± 0.011 mPa·s
293.2 K, 101.3 kPa | 0.4084 ± 0.0047 mPa·s
296 K, 101.3 kPa | 0.395 ± 0.007 mPa·s and 0.397 ± 0.007 mPa·s
298 K, 101.33 kPa | 0.3899 ± 0.0054 mPa·s
298.15 K, 100 kPa | 0.358 ± 0.006 mPa·s
303 K, 101.33 kPa | 0.374 ± 0.058 mPa·s
303.15 K, 100 kPa | 0.376 ± 0.038 mPa·s and 0.337 ± 0.006 mPa·s
303.15 K, 101.33 kPa | 0.403 ± 0.04 mPa·s and 0.381 ± 0.009 mPa·s
308.15 K, 100 kPa | 0.342 ± 0.034 mPa·s and 0.318 ± 0.006 mPa·s
308.15 K, 101.33 kPa | 0.363 ± 0.008 mPa·s
313.15 K, 100 kPa | 0.301 ± 0.006 mPa·s and 0.34 ± 0.005 mPa·s
313.15 K, 101 kPa | 0.331 ± 0.02 mPa·s and 0.332 ± 0.009 mPa·s and 0.3432 ± 0.0076 mPa·s
313.2 K, 101.3 kPa | 0.3447 ± 0.0039 mPa·s
318.15 K, 101 kPa | 0.326 ± 0.004 mPa·s and 0.314 ± 0.02 mPa·s and 0.3269 ± 0.0075 mPa·s
318.15 K, 101.33 kPa | 0.317 ± 0.01 mPa·s
323 K, 101.33 kPa | 0.308 ± 0.05 mPa·s
323.1 K, 101.3 kPa | 0.3182 ± 0.0036 mPa·s
323.15 K, 101 kPa | 0.3039 ± 0.012 mPa·s

CCOCCOCCO
101 kPa
Conditions | viscosity
293.15 K | 4.291 ± 0.079 mPa·s and 3.626 ± 0.022 mPa·s
298.15 K | 3.799 ± 0.05 mPa·s and 3.686 ± 0.077 mPa·s and 3.278 ± 0.02 mPa·s
303.15 K | 3.186 ± 0.075 mPa·s and 2.862 ± 0.018 mPa·s
308.15 K | 2.839 ± 0.038 mPa·s and 2.859 ± 0.074 mPa·s and 2.507 ± 0.016 mPa·s
313.15 K | 2.511 ± 0.073 mPa·s
318.15 K | 2.358 ± 0.031 mPa·s and 2.269 ± 0.073 mPa·s

CC(=O)OC1CCCCC1
101 kPa
Conditions | viscosity [mPa·s]
300 K | 1.95 ± 0.03
310 K | 1.61 ± 0.03
320 K | 1.36 ± 0.02

CC12CC3CC(C)(C1)CC(C)(C3)C2
100 kPa
Conditions | viscosity
293.15 K | 2.641 ± 0.11 mPa·s and 2.61 ± 0.11 mPa·s
298.15 K | 2.376 ± 0.097 mPa·s and 2.35 ± 0.1 mPa·s
303.15 K | 2.147 ± 0.087 mPa·s
308.15 K | 1.951 ± 0.079 mPa·s
313.15 K | 1.781 ± 0.072 mPa·s and 1.76 ± 0.07 mPa·s
318.15 K | 1.633 ± 0.066 mPa·s
323.15 K | 1.502 ± 0.061 mPa·s

C1CCC2CCCCC2C1 (stereo unspecified)
viscosity
Conditions | 293.15 K | 298.15 K | 303.15 K | 308.15 K | 313.15 K | 318.15 K | 323.15 K
100 kPa | 2.507 ± 0.013 mPa·s | 2.272 ± 0.013 mPa·s | 2.07 ± 0.012 mPa·s | – | 1.741 ± 0.012 mPa·s | – | 1.457 ± 0.011 mPa·s
101 kPa | 2.453 ± 0.052 mPa·s | 2.223 ± 0.047 mPa·s and 2.171 ± 0.029 mPa·s | 2.026 ± 0.043 mPa·s | 1.854 ± 0.039 mPa·s | 1.703 ± 0.036 mPa·s | 1.571 ± 0.033 mPa·s | 1.454 ± 0.031 mPa·s

Source: the CheMixHub viscosity set
